In patent US11486825B1, “Devices and methods for analysis of biological matter using plasmon resonance” (THE FLORIDA INTERNATIONAL UNIVERSITY BOARD OF TRUSTEES, priority 2022, dated 2022):

Test system: contracting CMs (cardiomyocytes)
Test: P-CeG (plasmonic cardio-eukaryography) signal of contracting cardiomyocytes cultured on gold SPR sensor, consecutive drug injections
Type: cell-based
Excerpt: The device as shown in FIGS. 1(a) and 1(c) was used for experiments and studies. The device had dimensions of 12 cm×7.5 cm×5 cm and had micro LEDs, LED splitters, micro prisms, micro polarizers, and micro detectors that induced plasmonic waveguides and detected changes in the electrical/mechanical activity of a cell membrane. Cellular function of mechanical and electrical origins was filtered and sorted using software in operable communication with the sensing platform, and was then compared to the physiological parameters of a healthy cell. […] The hinged cap (fluidic module) had heavy-duty gaskets made from PDMS attached thereto. Micropumps and microtubing on the were used to drive the flow of the cell medium from its attached reservoir. The base of the device acted as a Faraday cage for the micro settings of plasmonic induction and detection, as well as related PCB boards and computer interface connectors of the sensing platform. The refraction index of the prisms was […] (each prism was a BK7 prism from a BI2000 device (Biosensing Instruments, AZ). The cell-SPR model discussed herein with reference to FIGS. 2(a)-2(f) was used as the cell-SPR model for experiments.
Empirical P-CeG data was correlated to the mathematical model of charge distribution near CM's cell membrane. FIG. 10(a) illustrates the four phases in a CM's action potential, field potential, and force of contraction profile (top to bottom, respectively) over time. The dashed vertical lines show phases 0, 1, 2, and 3 of the CM's electromechanical activities. […] Values were extracted using equations from the cell-SPR model. […] Arrows from left to right in the bottom graph depict the depolarization amplitude (DA), field potential duration (FPD), and the repolarization amplitude (RA) as the main features of a CM's field potential. These are also elaborated on in FIG. 10(e) and FIG. 10(f).
Feature extraction was performed on a P-CeG signal and its correlated charge profile of contracting CMs. FIGS. 11(a), 11(b), and 11(c) show amplitude, full width at half maximum (FWHM), and inter-beat intervals (IBI), respectively, for a 100-second epoch from the P-CeG signal obtained from 12 CM-cultured gold sensors. The high variability of values across different sensors is due to the selected methodology for cell isolation and non-ideal experimental conditions (room temperature and without CO2). FIGS. 11(d), 11(e), and 11(f) show DA, RA, and FPD of contracting CMs obtained from their charge profile.
Analysis was performed using blebbistatin as the cells to be analyzed. Consecutive injections of 1 micromolar (04), 3 μM, 5 μM, 7 and 9 μM blebbistatin were performed, and the P-CeG signals were recorded and analyzed. […] A decrease of the control sample's amplitude and high variability in the FWHM of data with time indicate decreased cellular functionality due to non-ideal experimental conditions. Average data are reported as mean±std: 1-way ANOVA, p<0.0001, 95% CI.
Analysis was performed using verapamil as the cells to be analyzed. Consecutive injections of 50 nanomolar (nM), 100 nM, 200 nM, and 500 nM verapamil were performed, and the P-CeG signals were recorded and analyzed. […] Average data are reported as mean±std: 1-way ANOVA, p<0.0001, 95% CI. […] Referring to FIGS. 14(k) and 14(l), an increase in FPD and FWHM of the signals is distinctly observable with increasing verapamil concentrations.
Analysis was performed using caffeine as the cells to be analyzed. Consecutive injections of 2 millimolar (mM), 4 mM, 6 mM, and 8 mM caffeine were performed, and the P-CeG signals were recorded and analyzed. […] Average data are reported as mean±std: 1-way ANOVA, p<0.0001, 95% CI.

Cc1ccc2c(c1)C(=O)C1(O)CCN(c3ccccc3)C1=N2 (stereo not drawn) [blebbistatin]
P-CeG signal amplitude (refractive index change) (consecutive injections of 1, 3, 5, 7 and 9 μM blebbistatin vs control, FIGS. 13(a), 13(b), 13(d)): continuous decrease in signal amplitude
signal's peak amplitudes (normalized refractive angle change) (five concentrations of blebbistatin 1-9 μM, FIG. 13(i)): decreased
FWHM duration (five concentrations of blebbistatin 1-9 μM, FIG. 13(j)): higher variability
cell signaling rate (action potential per minute, APM) (five concentrations of blebbistatin 1-9 μM, FIG. 13(k)): relatively unchanged
depolarization amplitude (DA) (increasing blebbistatin concentrations 1-9 μM, FIG. 13(f)): no significant difference
repolarization amplitude (RA) (increasing blebbistatin concentrations 1-9 μM, FIG. 13(g)): no significant difference
field potential duration (FPD) (increasing blebbistatin concentrations 1-9 μM, FIG. 13(h)): showed a decrease

Cn1c(=O)c2c(ncn2C)n(C)c1=O [caffeine]
P-CeG signal amplitude (refractive index change) (consecutive injections of 2, 4, 6 and 8 mM caffeine vs control, FIGS. 15(a), 15(b), 15(d)): presence of detectable signal amplitude
peak amplitudes (normalized refractive angle change) (increased caffeine concentrations 2-8 mM, FIG. 15(i)): relatively unchanged
FWHM duration (increased caffeine concentrations 2-8 mM, FIG. 15(j)): relatively unchanged
cell signaling rate (action potential per minute, APM) (increased caffeine concentrations 2-8 mM, FIG. 15(k)): decreases
depolarization amplitude (DA) (increasing caffeine concentrations 2-8 mM, FIG. 15(f)): no significant difference
repolarization amplitude (RA) (increasing caffeine concentrations 2-8 mM, FIG. 15(g)): no significant difference
field potential duration (FPD) (increasing caffeine concentrations 2-8 mM, FIG. 15(h)): slight increase

COc1ccc(CCN(C)CCCC(C#N)(c2ccc(OC)c(OC)c2)C(C)C)cc1OC (stereo not drawn) [verapamil]
P-CeG signal amplitude (refractive index change) (consecutive injections of 50, 100, 200 and 500 nM verapamil vs control, FIGS. 14(a), 14(b), 14(d)): sharp decrease in signal amplitude
peak amplitudes (normalized refractive angle change) (increasing verapamil concentration 50-500 nM, FIG. 14(h)): decreased
FWHM duration (increasing verapamil concentration 50-500 nM, FIG. 14(i)): slightly increases before it becomes undetectable and is counted as zero
cell signaling rate (action potential per minute, APM) (increasing verapamil concentration 50-500 nM, FIG. 14(j)): decreased
depolarization amplitude (DA) (increasing verapamil concentrations 50-500 nM, FIG. 14(e)): no significant difference
repolarization amplitude (RA) (increasing verapamil concentrations 50-500 nM, FIG. 14(f)): no significant difference
field potential duration (FPD) (increasing verapamil concentrations 50-500 nM, FIG. 14(g)): showed an increase
